Patent US11401255B2, “Small molecule activators of Parkin enzyme function” (Mayo Foundation for Medical Education and Research, priority 2016, dated 2022)

What was measured:
[1] = tested on: TA 98; experiment: Ames Test, strain TA 98; settings: TA 98, positive control 0.1 μg/plate
Text: (§1) The test used amino acid-dependent strains of Salmonella typhimurium and Escherichia coli to detect point mutations which involved substitution, addition or deletion of one or a few DNA base pairs. Point mutations were introduced in the histidine (Salmonella typhimurium) or the tryptophan (Escherichia coli) operon, making the tester strains incapable of producing these amino acids. The test detected mutations that revert the mutations present in the bacteria, restoring the functional capability to synthesize histidine or tryptophan. The revertant bacteria were detected by the ability to grow in the absence of the amino acid required by the parent test strain. A mutagenic potential of a tested compound was assessed by exposing these bacterial strains to different concentrations of the compounds and estimating number of revertant colonies grown in the absence (trace quantities) of the amino acid.
(§2) DMSO was used as the negative control.
(§3) For each experiment, tester strain cultures were grown overnight in Oxoid nutrient broth #2 at 37° C. with shaking at 235 rpm to a density of 1-2×10^9 colony forming units/mL (OD540˜2).
(§4) The tester strain (10 μL of night culture) was mixed with the test agent (10 µL of the DMSO stock) and GM liquid medium (30 μL). The obtained mixture was incubated at room temperature for 5 min in a sterile 1.5 mL tube. Then, to the tube was added 200 μL of molten top agar stored at 44° C. to prevent solidifying. After mixing with a pipette, the mixture was poured onto the surface of a GM agar plate (2.0 mL of GM agar per plate). After solidifying the top agar, the plate was inverted and incubated at 37° C. for 48 hours. Then, results were expressed as number of revertant colonies per plate.

[2] = tested on: TA 1537; experiment: Ames Test, strain TA 1537; settings: TA 1537, positive control 7.5 μg/plate (row printed 50; shifted)
Text: as §1, §2, §3, §4

[3] = biological target: Parkin (Homo sapiens (Human), UniProt O60260); experiment: Primary HCI assay of EGFP-Parkin translocation to mitochondria; format: cell-based; settings: primary assay screen, Parkin translocation to mitochondria
Sequence of Parkin (O60260 whole entry): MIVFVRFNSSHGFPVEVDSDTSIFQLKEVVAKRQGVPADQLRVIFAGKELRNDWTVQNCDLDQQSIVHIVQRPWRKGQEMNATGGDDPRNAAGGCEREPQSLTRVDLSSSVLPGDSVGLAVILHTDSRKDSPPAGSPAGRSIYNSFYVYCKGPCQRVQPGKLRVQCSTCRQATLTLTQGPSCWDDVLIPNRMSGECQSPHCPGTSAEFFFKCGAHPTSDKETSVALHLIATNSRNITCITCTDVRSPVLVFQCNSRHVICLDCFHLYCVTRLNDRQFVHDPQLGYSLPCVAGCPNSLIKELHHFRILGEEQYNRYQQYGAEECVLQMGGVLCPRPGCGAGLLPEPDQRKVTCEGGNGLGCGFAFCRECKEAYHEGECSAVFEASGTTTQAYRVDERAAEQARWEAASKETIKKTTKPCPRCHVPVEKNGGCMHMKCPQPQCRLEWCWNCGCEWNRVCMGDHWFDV
Method: GFP-Parkin is localized throughout the cell in unstressed cells but translocates to mitochondria when the mitochondrial membrane potential is compromised and Parkin is activated. After automated image acquisition of fixed cells, regions of interest of each cell were defined with the analysis software. […] To quantify the relocalization of GFP-Parkin to mitochondria, the ratio of the GFP intensity in the cytoplasm and the nucleus was calculated. Under non-stressed condition, this ratio is about 1. FIG. 1B is a bar graph showing the results of the assay with a Z factor (Z′) of 0.5-0.8, which indicates its robustness and usefulness as a screening assay. Validation of the assay has been performed by using PINK1 siRNA.
FIGS. 2A-2C show a primary HCI assay with CCCP titration. FIG. 2A is a graphic description of the primary HCI assay of EGFP-Parkin translocation. HeLa cells stably expressing GFP-Parkin were seeded with 1350 cells per well in 384-well plates (25 μL per well). Cells were allowed to attach overnight before drug was added 2× concentrated in a volume of 25 μL in triplicates. After 2 h, 50 μL of a 2× low-dose CCCP (yielding a final concentration of 3.5 μM CCCP) was added to all wells that contained test compounds and for the negative control. For positive control wells, CCCP was added in a final concentration of 10 μM. After 2 h incubation with CCCP, cells were fixed and labeled with Hoechst for at least 1 h before cells were imaged. […] Values were being normalized to negative and positive control values and plotted as % activity. Z′ was calculated for quality control. Positive controls were indicated in green, negative control wells in red. Drugs that lead to more than 50% activity are considered positive (blue).
Functional testing of compounds was performed using an established primary HCI assay for Parkin translocation, which correlates well with enzymatic activation (Fiesel et al., J. Cell Science (2014) 127:3488-3504; Fiesel et al., Human Mutation (2015) 36:774-786). In brief, 1400 HeLa cells stably expressing EGFP-Parkin were seeded into optical 384-well plates (Greiner BioOne) in 25 μL media and allowed to adhere for 40 h. Compounds 1, 2, 3, 4, and 31 were added to the plate as 2× concentrated stocks. Control wells were treated with equal volume of DMSO in media. After 2 h, unless otherwise stated, CCCP was added as 2× concentrated stock with a final assay concentration of 10 μM for PC wells and 3.5 μM for test and NC wells. This low dose of CCCP was experimentally determined by a dose response curve of CCCP to result in no Parkin translocation (FIG. 13). After another 2 h, cells were fixed in 4% paraformaldehyde for 10 min and stained with Hoechst 33342 (1:5000, Invitrogen) before plates were imaged and analyzed.
Image acquisition was performed on a BD Pathway 855 with the Attovision V1.6 software (BD Biosciences). Wells were imaged with a 20× objective using a 2×2 montage with laser autofocus. EGFP exposure time was 0.0175 sec, Hoechst 0.0015 sec. Raw images were not processed and directly analyzed using a build-in ‘RING—2 output’ algorithm. Values were exported and normalized using JMP 11 software and transferred to GraphPad Prism 7 for quality control, graphing and curve fitting for DRCs with a variable slope using four parameters. […] Values were normalized to both PC and NC values from 24 wells each per plate and the Z′ score was calculated. Plates with Z′<0.5 were repeated.

[4] = biological target: CYP 2C9 (Homo sapiens (Human), UniProt P11712); experiment: P450-Glo CYP450 inhibition, CYP 2C9; format: in vitro ADME; settings: human, P450-Glo Assay System (Promega), CYP 2C9 membranes, CYP 2C9, reference inhibitor 120 uM
Sequence of CYP 2C9 (P11712 whole entry): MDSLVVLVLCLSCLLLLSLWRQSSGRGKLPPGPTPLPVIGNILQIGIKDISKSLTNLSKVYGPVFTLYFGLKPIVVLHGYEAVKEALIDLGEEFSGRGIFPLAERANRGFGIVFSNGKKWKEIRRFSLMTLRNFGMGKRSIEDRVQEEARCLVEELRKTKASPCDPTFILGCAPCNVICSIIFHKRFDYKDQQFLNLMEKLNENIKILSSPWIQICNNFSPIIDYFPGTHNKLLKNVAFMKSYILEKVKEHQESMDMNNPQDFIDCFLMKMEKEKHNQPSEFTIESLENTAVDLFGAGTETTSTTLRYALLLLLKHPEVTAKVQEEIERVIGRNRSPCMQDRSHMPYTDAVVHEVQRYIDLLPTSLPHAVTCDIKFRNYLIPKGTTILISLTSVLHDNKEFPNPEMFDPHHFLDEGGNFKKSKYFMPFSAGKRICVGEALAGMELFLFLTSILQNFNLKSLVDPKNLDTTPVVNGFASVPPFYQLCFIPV
Method: CYP450 inhibition profiling provides valuable information regarding any possible drug-drug interactions for a test compound.
All experiments were performed using P450-Glo™ Assay Systems (Promega) in accordance with the manufacturer's protocols. The P450-Glo™ Assays provide a luminescent readout-based method for measuring cytochrome P450 activity. A conventional cytochrome P450 reaction was performed by incubating the cytochrome P450 and a luminogenic cytochrome P450 substrate. The substrates in the P450-Glo™ assays are derivatives of beetle luciferin. The derivatives themselves are not substrates for luciferase but are converted by cytochrome P450s to luciferin, which in turn reacts with luciferase to produce light. The amount of light produced was directly proportional to cytochrome P450 activity. All test points were performed in quadruplicates. Control membranes (without CYPs) represented the Negative control (baseline).
The following reference compounds were used to assess CYP inhibition: […]

Compound	EC50 [3]	also measured
O=[N+]([O-])c1ccc2c(c1)Cc1ccccc1-2 [2-nitrofluorene, reference compound]	–	Mean ± SD [1]: 7 ± 1.41 revertant colonies per plate
Nc1c2ccccc2nc2ccccc12 [9-aminoacridine, reference compound]	–	Mean ± SD [2]: 1119 ± 21.21 revertant colonies per plate
O=C(Cn1ccnc1)Nc1ccc(-c2ccccc2)c(Cl)c1 [Compound 6]	2 µM	–
O=C(Cn1ccnc1)Nc1ccc(OCC2CCCCC2)cc1 [Compound 8]	5 µM	–
O=C(Cn1ccnc1)Nc1ccc(CN2CCc3ccccc32)cc1 [Compound 9]	5 µM	–
O=C(Cn1ccnc1)Nc1ccc(C23CC4CC(CC(C4)C2)C3)cc1 [Compound 10]	5 µM	–
O=C(Cn1ccnc1-c1ccncc1)Nc1ccc(-c2ccccc2)cc1 [Compound 11]	5 µM	–
O=C(Cn1ccnc1)Nc1ccc(-c2ccccc2)c(C(F)(F)F)c1 [Compound 12]	5 µM	–
O=C(Cn1ccnc1)Nc1nc(-c2ccccc2)co1 [Compound 13]	5 µM	–
O=C(Cn1ccnc1)Nc1ccc(Oc2ccccc2)cc1 [Compound 14]	5 µM	–
O=C(Cn1ccnc1)Nc1ccc(COC2CCCC2)cc1 [Compound 15]	5 µM	–
N#Cc1ccc(Oc2ccc(NC(=O)Cn3ccnc3)cc2)cc1 [Compound 16]	5 µM	–
CC(C)Cc1ccc(NC(=O)Cn2ccnc2)cc1 [Compound 17]	5 µM	–
O=C(Cn1ccnc1)Nc1ccc(SC2CCCC2)cc1 [Compound 18]	5 µM	–
Cc1nccn1CC(=O)Nc1ccc(-c2ccccc2)cc1 [Compound 19]	10 µM	–
O=C(Cc1ccncc1)Nc1ccc(-c2ccccc2)cc1 [Compound 20]	10 µM	–
O=C(Nc1ccc(-c2ccccc2)cc1)c1cn2c(n1)CCCC2 [Compound 21]	0.238 µM	–
O=C(Cn1cnc2c1CCCC2)Nc1ccc(-c2ccccc2)cn1 [Compound 22]	0.246 µM	–
O=C(Cn1cnc2c1CCCC2)Nc1ccc(-c2ccccn2)cc1 [Compound 23]	0.272 µM	–
Cc1nccc(-c2ccc(NC(=O)Cn3cnc4c3CCCC4)cc2)n1 [Compound 24]	0.19 µM	–
O=C(Cn1cnc2c1CCCC2)Nc1ccc(-c2ccccc2F)nn1 [Compound 25]	0.382 µM	–
O=C(Cn1cnc2c1CCCC2)Nc1cnc(-c2ccccc2)nc1 [Compound 26]	0.938 µM	–
Cc1ccnc(-c2ccc(NC(=O)Cn3cnc4c3CCCC4)cc2)n1 [Compound 27]	0.19 µM	–
Cc1cc(NC(=O)Cn2cnc3c2CCCC3)ccc1-c1ccncc1 [Compound 28]	0.134 µM	–
OC(Cn1cncn1)(Cn1cncn1)c1ccc(F)cc1F [fluconazole, reference compound]	–	inhibition at 120 µM [4]: 84.5%

Continued, in another order:

EC50 [3]	Compound	also measured
2 µM	O=C(Cn1ccnc1-c1ccccc1)Nc1ccc(-c2ccccc2)cc1 [Compound 29]	–
5 µM	Cc1cc(NC(=O)Cn2ccnc2)ccc1-c1ccccc1 [Compound 30]	–
10 µM	Cc1nc2c(c(N3CCCN(Cc4csc(C)n4)CC3)n1)CCCC2 [Compound 35]	–
> 10 µM	COc1ccc(CN2CCCN(c3ncnc4c3CN(C)CC4)CC2)cc1 [Compound 36]	–
> 10 µM	Cc1nc2c(c(N3CCN(C(=O)c4ccccc4)CC3)n1)CCCC2 [Compound 40]	–
0.707 µM	Cc1nc2c(c(N3CCCN(Cc4noc(C5CC5)n4)CC3)n1)CCCC2 [Compound 42]	–
0.28 µM	Cc1nc2c(c(N3CCCN(Cc4cccs4)CC3)n1)CCCC2 [Compound 43]	–
0.438 µM	Cc1nc2c(c(N3CCN(Cc4ccccc4)C(C)(C)C3)n1)CCCC2 [Compound 44]	–
0.366 µM	Cc1nc2c(c(N3CCCN(Cc4ccc(Cl)cc4)CC3)n1)CCCC2 [Compound 45]	–
0.203 µM	c1ccc(CN2CCCN(c3ncnc4ncccc34)CC2)cc1 [Compound 46]	–
